Reference: patent US12691129B2, “Use of carotenoids in the treatment of senescence-related diseases” (ALGAKTIV, S.L., priority 2019, dated 2026)
Where two headings read alike, the source gives them in different places.

Key:
[1] = system: MV-4-11 cells; assay: MTT cytotoxicity assay in MV-4-11 cells; assay type: cell-based, Human; conditions: 6 replicates, read-out: IC50 (μM) (mean ± SD)
Procedure: Human MV-4-11 and PL-21 cell lines were used to evaluate fucoxanthin and amarouciaxanthin A effects in combination with the BCL-2 family inhibitor Navitoclax (ABT-263) and Venetoclax (ABT-199). […] For cytotoxicity determination, MV-4-11 cells and PL-21 cells were plated in 96-well microplates at a density of 10^4 cells/well. After 24 hours, different concentration combinations of Navitoclax or Venetoclax and fucoxanthin or amarouciaxanthin A were added. […] DMSO was used as vehicle control. After this period, 50 μL of SDS 10% were added to the negative control wells (0% viability, 100% mortality). Then, culture media was replaced by fresh media with 10 μL of MTT 5 mg/ml in PBS in each well. […] Next, culture media was removed and 100 μL of extraction buffer (SDS, DSA, acetic acid 2%, pH 4.7) were added to each well. […] Finally, plates were read at 570 nm with the spectrophotometer Multiskan Ascent (MTX Lab systems). The potency of each product was determined through the calculation of IC50 (half maximal inhibitory concentration).

[2] = system: PL-21 cells; assay: MTT cytotoxicity assay in PL-21 cells; assay type: cell-based, Human; conditions: 72 hours, 6 replicates, read-out: IC50 (μM) (mean ± SD)
Procedure: Human MV-4-11 and PL-21 cell lines were used to evaluate fucoxanthin and amarouciaxanthin A effects in combination with the BCL-2 family inhibitor Navitoclax (ABT-263) and Venetoclax (ABT-199). Cells were cultured in RPMI media supplemented with 10% FCS at 37° C. in a humidified 5% CO2-atmosphere, and were consistently free of mycoplasma, as evaluated by PCR. All passages were performed between 80 and 90% of confluence and with viability above 90%.
For cytotoxicity determination, MV-4-11 cells and PL-21 cells were plated in 96-well microplates at a density of 10^4 cells/well. After 24 hours, different concentration combinations of Navitoclax or Venetoclax and fucoxanthin or amarouciaxanthin A were added. Plates were incubated for 72 hours at 37° C. and 5% CO2. DMSO was used as vehicle control. After this period, 50 μL of SDS 10% were added to the negative control wells (0% viability, 100% mortality). Then, culture media was replaced by fresh media with 10 μL of MTT 5 mg/ml in PBS in each well. Plates were incubated for 4 hours at 37° C. and 5% CO2. Next, culture media was removed and 100 μL of extraction buffer (SDS, DSA, acetic acid 2%, pH 4.7) were added to each well. […] Finally, plates were read at 570 nm with the spectrophotometer Multiskan Ascent (MTX Lab systems). The potency of each product was determined through the calculation of IC50 (half maximal inhibitory concentration).

[3] = system: Sk-Mel-103 cells; assay: MTT cytotoxicity of Navitoclax in Sk-Mel-103 cells after palbociclib/fucoxanthin pretreatment; assay type: cell-based, human; conditions: for IC50: 6 replicates, read-out: IC50 of Navitoclax (μM) (mean ± SD)
Procedure: (§1) Sk-Mel-103 cell line (human skin melanoma) was cultured in DMEM-high glucose supplemented with 10% FCS. All cells were cultured at 37° C. in a humidified 5% CO2-atmosphere and were consistently free of mycoplasma, as evaluated by PCR. All passages were performed between 80 and 90% of confluence and with viability greater than 90%.
10^6 Sk-Mel-103 cells were seeded in 24-well plates. Cultures were incubated with palbociclib (Palbo), as a senescence inductor; fucoxanthin; or a combination of them, as described in Table 4. After 7 days, cultures were treated with different concentrations of the BCL2 inhibitor Navitoclax. The cytotoxicity of each condition was determined through the calculation of IC50 (half maximal inhibitory concentration) by an MTT assay.
For cytotoxicity determination, cells were plated in 96-well microplates at a density of 10^4 cells/well. After the initial treatments described above, different concentrations of Navitoclax were added. Plates were then incubated for 72 hours at 37° C. and 5% CO2. DMSO was used as vehicle control. After this period, 50 μL of SDS 10% were added to the negative control wells (0% viability, 100% mortality). Then, culture media was replaced by fresh media with 10 μL of MTT 5 mg/ml in PBS in each well. Plates were incubated for 4 hours at 37° C. and 5% CO2. Next, culture media was removed and 100 μL of extraction buffer (SDS, DSA, acetic acid 2%, pH 4.7) were added to each well. After incubating plates for 1 hour at 37° C. and 5% CO2, cultures were homogenized. Finally, plates were read at 570 nm with the spectrophotometer Multiskan Ascent (MTX Lab systems). The potency of each product was determined through the calculation of IC50 (half maximal inhibitory concentration).

[4] = system: BJ-11 cells; assay: Senescence associated β-galactosidase (SA-β-Gal) staining in BJ-11 cells; assay type: cell-based, human
Procedure: BJ-11 cell line (human primary skin fibroblasts) was cultured in MEM supplemented with 10% FCS plus 2 mM L-glutamine. All cells were cultured at 37° C. in a humidified 5% CO2-atmosphere and were consistently free of mycoplasma, as evaluated by PCR. All passages were performed between 80 and 90% of confluence and with viability greater than 90%.
In order to evaluate the effects of fucoxanthin on senescence, 10^4 BJ-11 cells were seeded in 24-well plates. Cultures were incubated with different concentrations of palbociclib (Palbo) or doxorubicin (Doxo), as senescence inductors, and fucoxanthin (Fuco), as described in Table 6.
Doxorubicin treatments were performed only for 24 hours. After that, doxorubicin was removed and cells were cultured in complete culture medium during the periods of time indicated below. On the other hand, palbociclib was constantly present in the culture medium and added fresh periodically.
Two different approaches were followed: • Approach 1: Fucoxanthin effects on senescence prevention
After 7 days, β-galactosidase activity was determined.
After that, treatment with fucoxanthin was performed for 7 days. At the end of this period […] activity was determined.
After treatments, SA-β-galactosidase staining was used for the determination of senescence-associated β-galactosidase expression in BJ-11 cells. β-galactosidase staining was performed based on manufacturer's recommendations (9860S, Cell Signaling Technology). Growth media was removed from the cells and the plate was rinsed once with PBS. Then, fixative solution was added to each well and cells were allowed to fix for 10-15 min at room temperature. The plate was rinsed twice with PBS before adding β-Galactosidase Staining Solution to each well. Finally, the plate was incubated at 37° C. for 24 h in a dry incubator (no CO2) for preventing changes in pH, which may affect staining results. The amount of cells positive in β-galactosidase activity (stained in blue) was evaluated by manual stained-cell counting.

[5] = system: IL-1β, IL-6 and IL-8 secretion by SK-Mel-103 cells; assay: Secreted interleukins (ELISA) in senescent SK-Mel-103 cells; assay type: cell-based, human; conditions: fucoxanthin 4 μM, p value<0.01
Procedure: as §1
10^6 Sk-Mel-103 cells were seeded in 24-well plates. Cultures were incubated with palbociclib or doxorubicin, as senescence inductors; fucoxanthin; or a combination of them, as described in Table 9. After treatments, cells and supernatants were collected by centrifugation and stored at −20° C.
Secretion of IL-1β, IL-6 and IL-8 was quantified in the supernatants by commercial ELISA kits (DY201, DY206, DY208, R&D Systems) following manufacturer's instructions. Obtained values were normalized by total cell protein content in each well at the end of the experiment, quantified by Bradford assay (B6916, Sigma-Aldrich). A second normalization was performed by dividing the secreted interleukin after fucoxanthin incubations by its corresponding control of senescent cells.

[6] = system: α-SMA in HSC from cirrhotic rats; assay: α-SMA expression in primary HSC from cirrhotic rats (qPCR, western blot); assay type: cell-based, rat; conditions: 10 μM, vs vehicle; for inhibition of α-SMA transcription: quantitative PCR
Procedure: (§2) To evaluate the effect of amarouciaxanthin A on HSC activation, the immortalized human cell line LX2 was used. Additionally, primary HSC were extracted from cirrhotic rats which had been subjected to carbon tetrachloride inhalation. In both cases, cells were cultured for 24 h before adding the compound. After that, either amarouciaxanthin A at 10 μM or the vehicle (DMSO) was added to the culture. Cells were harvested at 24 and 72 h post treatment and were lysed to analyze fibrotic biomarkers. Gene transcription was determined by quantitative PCR at 24 and 72 h and protein expression by western blotting at 72 h. α-smooth muscle actin (α-SMA) was analyzed in rat HSC. Collagen I al (COL1A1), which is the main component of the extracellular matrix, was analyzed in LX2.

[7] = system: COL1A1 in LX2 cells; assay: COL1A1 expression in LX2 cells (qPCR, western blot); assay type: cell-based, human; conditions: 10 μM, vs vehicle; for inhibition of COL1A1 transcription: quantitative PCR
Procedure: as §2

[8] = senescence induced with doxorubicin 125 nM, vs senescent cells (FIG. 2)
[9] = senescence induced with palbociclib 1 μM, vs senescent cells (FIG. 1)

fucoxanthin
IC50 ([1]; 72 hours): 1.34 ± 0.07 µM
IC50 [2]: 10.5 ± 1.55 µM
effect of fucoxanthin pretreatment on senolytic activity of Navitoclax ([3]; Sk-Mel-103, fucoxanthin 4 μM pretreatment 7 days, summary of Table 5): increased the senolytic activity of Navitoclax
Percentage of cells positive in β-galactosidase activity ([4]; Approach 1 (prevention), fucoxanthin 10 μM simultaneously with doxorubicin 25 nM, 7 days): <5%
Percentage of cells positive in β-galactosidase activity ([4]; Approach 1 (prevention), fucoxanthin 10 μM simultaneously with palbociclib 1 μM, 7 days): <5%
Percentage of cells positive in β-galactosidase activity ([4]; Approach 2 (reversion), doxorubicin 25 nM, 7 days, then fucoxanthin 10 μM for 7 days): <5%
Percentage of cells positive in β-galactosidase activity ([4]; Approach 2 (reversion), palbociclib 1 μM for 7 days, then fucoxanthin 10 μM for 7 days): <5%
percentage of senescent cells positive in β-galactosidase activity after treatment (in words) ([4]; BJ-11, doxorubicin or palbociclib induced senescence, prevention and reversion, summary of Tables 7 and 8): reduced
secretion of IL-1β [5, 8]: significantly decreased
secretion of IL-6 [5, 8]: significantly decreased
secretion of IL-8 [5, 8]: significantly decreased
secretion of IL-1β [5, 9]: significantly decreased
secretion of IL-6 [5, 9]: significantly decreased
secretion of IL-8 [5, 9]: significantly decreased

CC1=CC(=O)CC(C)(C)[C@@]1(O)CC(=O)/C(C)=C/C=C/C(C)=C/C=C/C=C(C)/C=C/C=C(\C)C=C=C1C(C)(C)C[C@H](O)C[C@@]1(C)O [Amarouciaxanthin A, amarouciaxanthin A]
IC50 ([1]; 72 hours): 1.45 ± 0.27 µM
inhibition of α-SMA transcription ([6]; 24 h): around 80%
inhibition of α-SMA transcription ([6]; 72 h): around 80%
reduction of α-SMA expression at the protein level ([6]; 72 h, western blotting): 95%
inhibition of COL1A1 transcription ([7]; 24 h): around 50%
inhibition of COL1A1 transcription ([7]; 72 h): around 80%
reduction of collagen expression (protein) ([7]; 72 h, western blot): around 95%

CC(=O)c1c(C)c2cnc(Nc3ccc(N4CCNCC4)cn3)nc2n(C2CCCC2)c1=O [Palbociclib, palbociclib, reference compound]
Percentage of cells positive in β-galactosidase activity ([4]; Approach 1 (prevention), senescent cells: palbociclib 1 μM alone, 7 days): >98%
Percentage of cells positive in β-galactosidase activity ([4]; Approach 2 (reversion), senescent cells: palbociclib 1 μM alone): >95%

COc1cccc2c1C(=O)c1c(O)c3c(c(O)c1C2=O)C[C@@](O)(C(=O)CO)C[C@@H]3O[C@H]1C[C@H](N)[C@H](O)[C@H](C)O1 [Doxorubicin, doxorubicin, reference compound]
Percentage of cells positive in β-galactosidase activity ([4]; Approach 1 (prevention), senescent cells: doxorubicin 25 nM (24 hours) alone, 7 days): >80%
Percentage of cells positive in β-galactosidase activity ([4]; Approach 2 (reversion), senescent cells: doxorubicin 25 nM alone): >80%

CC1(C)CCC(c2ccc(Cl)cc2)=C(CN2CCN(c3ccc(C(=O)NS(=O)(=O)c4ccc(NCC5CCOCC5)c([N+](=O)[O-])c4)c(Oc4cnc5[nH]ccc5c4)c3)CC2)C1 [Venetoclax, venetoclax, reference compound]
IC50 ([1]; Homo sapiens, MV4-11, 72 hours): 0.0048 µM

CC1(C)CCC(c2ccc(Cl)cc2)=C(CN2CCN(c3ccc(C(=O)NS(=O)(=O)c4ccc(N[C@H](CCN5CCOCC5)CSc5ccccc5)c(S(=O)(=O)C(F)(F)F)c4)cc3)CC2)C1 [Navitoclax, navitoclax]
IC50 ([1]; 72 hours): 0.14 ± 0.01 µM
IC50 [2]: 1.22 ± 0.12 µM
IC50 ([3]; Sk-Mel-103 control cells (no pretreatment)): 8.02 ± 1.31 µM
IC50 ([3]; Sk-Mel-103 control cells + fucoxanthin 4 μM pretreatment 7 days): 4.79 ± 0.911 µM
IC50 ([3]; Sk-Mel-103 senescent cells (palbociclib 1 μM) + fucoxanthin 4 μM pretreatment 7 days): 0.055 ± 0.005 µM
IC50 ([3]; Sk-Mel-103 senescent cells (palbociclib 1 μM, 7 days)): 0.136 ± 0.012 µM
